Test results published in patent US10294202B2, “Pyrrolidinones as herbicides” (FMC Corporation, priority 2013, dated 2019).

Key:
[1] = test system: blackgrass; assay: Test A postemergence herbicide test; format: in vivo, Alopecurus myosuroides
Method in brief: (§1)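 Ratings compare treated with untreated plants roughly 10 days after a postemergence application made at the one- to two-leaf stage. Scoring uses 0–100, where 0 means no effect and 100 complete control.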

[2] = test system: wheat; assay: Test A pre-/postemergence herbicide test; format: in vivo, Triticum aestivum; settings: Postemergence
Method in brief: (§2)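 Greenhouse pot test with pre- and postemergence application of surfactant-containing solvent formulations. Postemergence plants were 2–10 cm, one- to two-leaf stage. Response scored visually after ~10 days, 0 (no effect) to 100 (complete control).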

[3] = test system: barnyardgrass; assay: Test A pre-/postemergence herbicide test; format: in vivo, Echinochloa crus-galli
Method in brief: as §2

[4] = test system: galium; assay: Test A postemergence herbicide test; format: in vivo, Galium aparine
Method in brief: as §1

[5] = test system: corn; assay: Test A pre-/postemergence herbicide test; format: in vivo, Zea mays; settings: Postemergence
Method in brief: as §2

[6] = test system: ryegrass, Italian; assay: Test A pre-/postemergence herbicide test; format: in vivo, Lolium multiflorum
Method in brief: as §2

[7] = test system: giant foxtail; assay: Test A pre-/postemergence herbicide test; format: in vivo, Setaria faberii
Method in brief: as §2

[8] = test system: ducksalad; assay: Test B flooded paddy test; format: in vivo, Heteranthera limosa; settings: Flood, scale of 0 to 100 where 0 is no effect and 100 is complete control
Method in brief: (§3)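 2-leaf plants; flood 3 cm over soil; compound into paddy water; depth held. Greenhouse 13–15 d. Visual rating vs controls, 0 (no effect) to 100 (complete control); dash = not tested.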

[9] = test system: kochia; assay: Test A pre-/postemergence herbicide test; format: in vivo, Kochia scoparia
Method in brief: as §2

[10] = test system: sedge, umbrella; assay: Test B flooded paddy test; format: in vivo, Cyperus difformis; settings: Flood, scale of 0 to 100 where 0 is no effect and 100 is complete control
Method in brief: as §3

[11] = test system: barnyardgrass; assay: Test B flooded paddy test; format: in vivo, Echinochloa crus-galli; settings: Flood, scale of 0 to 100 where 0 is no effect and 100 is complete control
Method in brief: as §3

[12] = test system: pigweed; assay: Test A pre-/postemergence herbicide test; format: in vivo, Amaranthus retroflexus
Method in brief: as §2

[13] = test system: rice; assay: Test B flooded paddy test; format: in vivo, Oryza sativa; settings: Flood, scale of 0 to 100 where 0 is no effect and 100 is complete control
Method in brief: as §3

[14] = test system: ragweed; assay: Test A pre-/postemergence herbicide test; format: in vivo, Ambrosia elatior
Method in brief: as §2

[15] = 125 g ai/ha, 0 to 100 scale, 0 is no effect, 100 is complete control
[16] = 125 g ai/ha, visual rating, 0 to 100 scale, 0 no effect, 100 complete control, approximately 10 days, preemergence
[17] = Postemergence, 125 g ai/ha, 0 to 100 scale, 0 is no effect, 100 is complete control
[18] = preemergence, 500 g ai/ha, 0 to 100 scale, 0 is no effect and 100 is complete control
[19] = 500 g ai/ha, 0 to 100 scale (0 no effect, 100 complete control)
[20] = Postemergence, 500 g ai/ha, 0 to 100 scale (0 no effect, 100 complete control)
[21] = Preemergence, 125 g ai/ha, 0 to 100 scale where 0 is no effect and 100 is complete control
[22] = Postemergence, 125 g ai/ha, visual rating on 0 to 100 scale (0 no effect, 100 complete control), approx. 10 days

With CC(C)(C)c1cccc(C2CNC(=O)C2C(=O)Nc2ccccc2C(F)(F)F)c1 (racemic) [Compound 201] the “Plant response rating, Blackgrass” value [1, 15] was 0, the “Blackgrass plant response rating (0 to 100 scale, 0 is no effect, 100 is complete control)” value ([1]; 500 g ai/ha) was 0 and the “Plant response rating, Wheat” value [2, 15] was 0. The “Wheat plant response rating (0 to 100 scale, 0 is no effect, 100 is complete control)” value ([2]; 500 g ai/ha) was 0, the “Plant response rating, Barnyardgrass” value [3, 16] was 0 and the “Plant response rating, Barnyardgrass” value [3, 17] was 0. The “Barnyardgrass plant response rating (0 to 100 scale, 0 is no effect, 100 is complete control)” value ([3]; Postemergence, 500 g ai/ha) was 30, the “Plant response rating, Barnyardgrass” value [3, 18] was 20 and the “Plant response rating, Galium” value [4, 15] was 0. For the same molecule, the “Galium plant response rating (0 to 100 scale, 0 is no effect, 100 is complete control)” value ([4]; 500 g ai/ha) was 0, the “Plant response rating, Corn” value [5, 15] was 0 and the “Corn plant response rating (0 to 100 scale, 0 is no effect, 100 is complete control)” value ([5]; 500 g ai/ha) was 0. The “Plant response rating, Ryegrass, Italian” value [6, 16] was 0, the “Plant response rating, Ryegrass, Italian” value [6, 17] was 0 and the “Ryegrass, Italian plant response rating (0 to 100 scale, 0 is no effect, 100 is complete control)” value ([6]; Postemergence, 500 g ai/ha) was 0. The “Plant response rating, Ryegrass, Italian” value [6, 18] was 0, the “Plant response rating, Foxtail, Giant” value [7, 16] was 20 and the “Plant response rating, Foxtail, Giant” value [7, 17] was 0. For the same molecule, the “Foxtail, Giant plant response rating (0 to 100 scale, 0 is no effect, 100 is complete control)” value ([7]; Postemergence, 500 g ai/ha) was 0, the “Plant response rating, Foxtail, Giant” value [7, 18] was 30 and the “Plant response rating, Ducksalad” value ([8]; 1000 g ai/ha) was 70. For the same molecule, the “Plant response rating, Kochia” value [9, 16] was 0, the “Plant response rating, Kochia” value [9, 17] was 0 and the “Kochia plant response rating (0 to 100 scale, 0 is no effect, 100 is complete control)” value ([9]; Postemergence, 500 g ai/ha) was 0. The “Plant response rating, Kochia” value [9, 18] was 0, the “Plant response rating, Sedge, Umbrella” value ([10]; 1000 g ai/ha) was 0 and the “Plant response rating, Barnyardgrass” value ([11]; 1000 g ai/ha) was 20. The “Plant response rating, Pigweed” value [12, 16] was 0, the “Plant response rating, Pigweed” value [12, 17] was 0 and the “Pigweed plant response rating (0 to 100 scale, 0 is no effect, 100 is complete control)” value ([12]; Postemergence, 500 g ai/ha) was 0. For the same molecule, the “Plant response rating, Pigweed” value [12, 18] was 0, the “Plant response rating, Rice” value ([13]; 1000 g ai/ha) was 0 and the “Plant response rating, Ragweed” value [14, 16] was 0. The “Plant response rating, Ragweed” value [14, 17] was 0, the “Ragweed plant response rating (0 to 100 scale, 0 is no effect, 100 is complete control)” value ([14]; Postemergence, 500 g ai/ha) was 0 and the “Plant response rating, Ragweed” value [14, 18] was 0.
For O=C1NCC(c2cc3ccccc3o2)C1C(=O)Nc1ccccc1F (racemic) [Compound 281], the “Plant response rating, Blackgrass” value [1, 15] was 0, the “Plant response rating, Blackgrass” value [1, 19] was 0 and the “Plant response rating, Wheat” value ([2]; 125 g ai/ha, visual rating on 0 to 100 scale (0 no effect, 100 complete control), approx. 10 days) was 0. The “Plant response rating, Wheat” value [2, 19] was 0, the “Plant response rating, Barnyardgrass” value [3, 17] was 40 and the “Plant response rating, Barnyardgrass” value [3, 20] was 70. For the same molecule, the “Plant response rating, Barnyardgrass” value [3, 21] was 50, the “Plant response rating, Barnyardgrass” value [3, 18] was 70 and the “Plant response rating, Galium” value [4, 15] was 0. For the same molecule, the “Plant response rating, Galium” value [4, 19] was 0, the “Plant response rating, Corn” value [5, 15] was 0 and the “Plant response rating, Corn” value [5, 19] was 0. The “Plant response rating, Ryegrass, Italian” value [6, 22] was 0, the “Plant response rating, Ryegrass, Italian” value [6, 20] was 0 and the “Plant response rating, Ryegrass, Italian” value [6, 21] was 0. The “Plant response rating, Ryegrass, Italian” value [6, 18] was 0, the “Plant response rating, Foxtail, Giant” value [7, 17] was 0 and the “Plant response rating, Foxtail, Giant” value [7, 20] was 0. The “Plant response rating, Foxtail, Giant” value [7, 21] was 10, the “Plant response rating, Foxtail, Giant” value [7, 18] was 70 and the “Plant response rating, Ducksalad” value ([8]; 500 g ai/ha) was 75. The “Plant response rating, Kochia” value [9, 17] was 0, the “Plant response rating, Kochia” value [9, 20] was 0 and the “Plant response rating, Kochia” value [9, 21] was 0. For the same molecule, the “Plant response rating, Kochia” value [9, 18] was 0, the “Plant response rating, Sedge, Umbrella” value ([10]; 500 g ai/ha) was 0 and the “Plant response rating, Barnyardgrass” value ([11]; 500 g ai/ha) was 20. The “Plant response rating, Pigweed” value [12, 22] was 0, the “Plant response rating, Pigweed” value [12, 20] was 0 and the “Plant response rating, Pigweed” value [12, 21] was 0. For the same molecule, the “Plant response rating, Pigweed” value [12, 18] was 0, the “Plant response rating, Rice” value ([13]; 500 g ai/ha) was 0 and the “Plant response rating, Ragweed” value [14, 22] was 0. For the same molecule, the “Plant response rating, Ragweed” value [14, 20] was 0, the “Plant response rating, Ragweed” value [14, 21] was 0 and the “Plant response rating, Ragweed” value [14, 18] was 0.
With CON(C(=O)C1C(=O)NCC1c1ccc(F)c(F)c1)c1cc([N+](=O)[O-])ccc1F (stereo not drawn) [Compound 175] the “Plant response rating, Blackgrass” value [1, 15] was 0, the “Blackgrass plant response rating (0 to 100 scale, 0 is no effect, 100 is complete control)” value ([1]; 500 g ai/ha) was 0 and the “Plant response rating, Wheat” value [2, 15] was 0. For the same molecule, the “Wheat plant response rating (0 to 100 scale, 0 is no effect, 100 is complete control)” value ([2]; 500 g ai/ha) was 0, the “Plant response rating, Barnyardgrass” value [3, 16] was 0 and the “Plant response rating, Barnyardgrass” value [3, 17] was 0. For the same molecule, the “Barnyardgrass plant response rating (0 to 100 scale, 0 is no effect, 100 is complete control)” value ([3]; Postemergence, 500 g ai/ha) was 0, the “Plant response rating, Barnyardgrass” value [3, 18] was 0 and the “Plant response rating, Galium” value [4, 15] was 0. The “Galium plant response rating (0 to 100 scale, 0 is no effect, 100 is complete control)” value ([4]; 500 g ai/ha) was 0, the “Plant response rating, Corn” value [5, 15] was 0 and the “Corn plant response rating (0 to 100 scale, 0 is no effect, 100 is complete control)” value ([5]; 500 g ai/ha) was 0. For the same molecule, the “Plant response rating, Ryegrass, Italian” value [6, 16] was 0, the “Plant response rating, Ryegrass, Italian” value [6, 17] was 0 and the “Ryegrass, Italian plant response rating (0 to 100 scale, 0 is no effect, 100 is complete control)” value ([6]; Postemergence, 500 g ai/ha) was 0. For the same molecule, the “Plant response rating, Ryegrass, Italian” value [6, 18] was 0, the “Plant response rating, Foxtail, Giant” value [7, 16] was 0 and the “Plant response rating, Foxtail, Giant” value [7, 17] was 0. For the same molecule, the “Foxtail, Giant plant response rating (0 to 100 scale, 0 is no effect, 100 is complete control)” value ([7]; Postemergence, 500 g ai/ha) was 0, the “Plant response rating, Foxtail, Giant” value [7, 18] was 0 and the “Plant response rating, Ducksalad” value ([8]; 500 g ai/ha) was 30. For the same molecule, the “Plant response rating, Kochia” value [9, 16] was 0, the “Plant response rating, Kochia” value [9, 17] was 0 and the “Kochia plant response rating (0 to 100 scale, 0 is no effect, 100 is complete control)” value ([9]; Postemergence, 500 g ai/ha) was 0. The “Plant response rating, Kochia” value [9, 18] was 0, the “Plant response rating, Sedge, Umbrella” value ([10]; 500 g ai/ha) was 0 and the “Plant response rating, Barnyardgrass” value ([11]; 500 g ai/ha) was 0. The “Plant response rating, Pigweed” value [12, 16] was 0, the “Plant response rating, Pigweed” value [12, 17] was 0 and the “Pigweed plant response rating (0 to 100 scale, 0 is no effect, 100 is complete control)” value ([12]; Postemergence, 500 g ai/ha) was 0. For the same molecule, the “Plant response rating, Pigweed” value [12, 18] was 0, the “Plant response rating, Rice” value ([13]; 500 g ai/ha) was 0 and the “Plant response rating, Ragweed” value [14, 16] was 0. For the same molecule, the “Plant response rating, Ragweed” value [14, 17] was 0, the “Ragweed plant response rating (0 to 100 scale, 0 is no effect, 100 is complete control)” value ([14]; Postemergence, 500 g ai/ha) was 0 and the “Plant response rating, Ragweed” value [14, 18] was 0.
